# Assay results as given in US5049550A, “Diadenosine 5', 5'"-p^1, p^4,-tetraphosphate analogs as antithrombotic agents” (Worcester Foundation for Experimental Biology, priority 1988, dated 1991).
# Entries after “also recorded” stand apart in the source; their conditions may differ.
# Assays:
# [1] = system: ADP induced platelet aggregation; conditions: in vitro; even when aggregation has progressed to 60% completion; cited from earlier work
# [2] = Decay of AP4 A / ATP in incubated rabbit blood collected at the end of AP4 A infusion (ex vivo); format: in vitro ADME; conditions: for level of AP4 A as compared to baseline: 37° C.
# Method: Blood samples were collected from the carotid artery through a catheter before and after (0, 10, 20, 40, and 60 minutes) infusion of AP4 A. Blood was anticoagulated by mixing with 0.15 volume of acid-citrate-dextrose solution. An aliquot of blood collected at the end of AP4 A infusion (to sample) was incubated at 37° C. and sampled at 10, 20, 40, and 60 minutes to evaluate the in vitro decay of AP4 A. Blood samples of […] 3% perchloric acid and kept at 0° C. for 30 minutes with intermittent vortexing. The acid soluble fraction was recovered by centrifugation at 1000 g for 10 minutes and neutralized by 5M K2 CO3. It was then kept at -80° C. until assay of the nucleotides. The AP4 A assay was performed by coupling the phosphodiesterase and luciferase reactions in a luminometer (Model 6100 Picolite, Packard, Downers Grove, Ill.). The detailed method of AP4 A and ATP assays has been reported elsewhere (Kim, B. K., Chao, F. C., Leavitt, R., Fauci, A. S., Meyers, K. M. and Zamecnik, P. C. Blood, 66:735-737, 1985).
# The disappearance of infused AP4 A in the circulation and in incubated blood was studied in 2 rabbits. Mean values of hemoglobin, hematocrit and platelet count were 10.1 g/dl, 30.8% and 362,000/ul respectively. The blood content of AP4 A in the rabbits was 51 nmol/1 blood prior to infusion. […] Kim, B. K. et al., Blood, 66:735-737 (1985); Flodgaard, H., Zamecnik, P. C. Meyers, K. and Klenow, H., Thrombosis Research, 37:345-351 (1986). […] A very rapid disappearance of infused AP4 A was observed, with complete clearance within 10 minutes after infusion. When blood samples obtained at the end of AP4 A infusion were incubated at 37° C., only 15-fold and 4-fold levels of AP4 A, as compared to baseline could be detected after 10 minutes and 20 minutes respectively.
# [3] = system: aggregation of platelets induced by ADP; experiment: ADP-induced aggregation of platelets recovered from AP4 A-infused rabbits; format: in vivo, rabbit
# Method: (§1) After preliminary trials, a standard AP4 A infusion protocol was established as follows: A dose of AP4 A at 50 mg/kg was reconstituted in 10 ml of normal saline and infused by pump at a uniform rate over two hours. Control rabbits received 10 ml of saline alone. The intracarotid cannula was inserted, and the re-establishment of blood flow timed at 15 minutes into the infusion. Upon the completion of infusion at 2 hours, the intracarotid tubing was removed, and its contents flushed out into a petri dish. The presence of a clot or of liquid blood contents was noted.
# (§2) Rabbit carotid arterial blood was collected in 3.8% sodium citrate (9 volumes blood to 1 volume citrate). Platelet rich plasma (PRP) and platelet poor plasma (PPP) were prepared by centrifugation at 150 g and 1,000 g for 10 minutes respectively. Aggregation studies were performed in a Chrono-Log (Havertown, Pa.) aggregometer with ADP or collagen as aggregating agents. ADP (Sigma Chemical Co.) was used in a final concentration of 2×10^-5 M. Calf skin collagen (Sigma Chemical Co.) was used in a final concentration of 200 ug/ml.
# [4] = system: rabbit platelet aggregation by collagen; experiment: Collagen-induced aggregation of rabbit platelets; format: cell-based
# Method: as §2
# (§3) The effect of AP4 A on rabbit platelet aggregation by ADP and collagen was tested. […] The anti-aggregatory effect of AP4 A was detected at a concentration of 2×10^-4 M (tenfold that of ADP) and increased in a dose-response pattern with increasing concentrations (FIG. 1).
# [5] = system: collagen-induced aggregation of platelets; experiment: Collagen-induced aggregation of platelets recovered from AP4 A-infused rabbits; format: in vivo, rabbit; conditions: 50 mg per kg over 2 hours; collagen 200 ug/ml (FIG. 4)
# Method: as §1, §2
# [6] = system: Intracarotid Artery Thrombosis; experiment: Intracarotid cannula arterial thrombosis model in rabbits; format: in vivo, rabbit
# Method: Gurewich, V. and Lipinski, B. Thrombosis Research, 9:101 (1976); Louie, S. and Gurewich, V. Thrombosis Research, 30:323-335 (1983).
# Male, New Zealand white rabbits, weighing 2-2.5 kg., were anesthetized with ketamine hydrochloride (100 mg/kg intramuscularly). AP4 A (Boehringer (100 Mannheim Biochemicals, Indianapolis, Ind.), or saline control was infused via a marginal ear vein. A segment of the left common carotid artery was isolated by vascular clamps. A 1 cm. length of polyethylene tubing (PE-90, Clay Adams, Parsippany, N.Y.) was inserted, secured by silk ligatures, and the blood flow re-established by removing the clamps. Blood was sampled from the right carotid artery for assays of AP4 A and ATP, and for platelet aggregation studies.
# as §1
# Twenty-five rabbits each were assigned to the experimental group that received AP4 A (50 mg/kg), and the control group that received normal saline alone. The incidence of clot formation in the intracarotid cannula in the two groups was compared by the Chi-Square test.
# Initially, twelve rabbits received a constant infusion of E10 over a 2 hour period at a dosage of 100 mg in 10 ml. These intravenous infusions were performed as described above for AP4 A.
# In addition, 30 mg of E10 in 3 ml saline was administered as a single injection over a one minute time span at the beginning of the cannulation period.
# [7] = system: rabbit platelet aggregation by ADP; experiment: ADP-induced aggregation of rabbit platelets; format: cell-based
# Method: as §2, §3
# [8] = plasma; cited from earlier work
# [9] = AP4 A 50 mg/kg infused over 2 hours, 25 rabbits
smiles,measurement,setting,value
"Nc1ncnc2c1ncn2[C@@H]1O[C@H](COP(=O)(O)OP(=O)(O)OP(=O)(O)OP(=O)(O)OC[C@H]2O[C@@H](n3cnc4c(N)ncnc43)[C@H](O)[C@@H]2O)[C@@H](O)[C@H]1O [AP4 A, diadenosine 5',5'""-p^1,p^4 -tetraphosphate]",effect on ADP induced platelet aggregation,[1],"competitively inhibits ADP induced platelet aggregation, causing an immediate dispersion of aggregated platelets"
same,level of AP4 A as compared to baseline,"[2]; ex vivo, after 10 minutes",15 fold
same,level of AP4 A as compared to baseline,"[2]; ex vivo, after 20 minutes",4 fold
same,"ATP, umol/l blood","[2]; ex vivo, 10 min at 37° C.",570.1 umol/l blood
same,"ATP, umol/l blood","[2]; ex vivo, 20 min at 37° C.",559.3 umol/l blood
same,"ATP, umol/l blood","[2]; ex vivo, 40 min at 37° C.",551.5 umol/l blood
same,"ATP, umol/l blood","[2]; ex vivo, 60 min at 37° C.",572.0 umol/l blood
same,ex vivo decay compared to in vivo clearance,[2]; rabbit blood,significantly longer; also recorded: slightly longer
same,concentration at 10 min,"[2]; rabbit, blood, iv, 50 mg/kg, ex vivo, 10 min at 37° C., read-out: AP4 A, umol/l blood",0.799 µmol/L
same,concentration at 20 min,"[2]; rabbit, blood, iv, 50 mg/kg, ex vivo, 20 min at 37° C., read-out: AP4 A, umol/l blood",0.21 µmol/L
same,concentration at 40 min,"[2]; rabbit, blood, iv, 50 mg/kg, ex vivo, 40 min at 37° C., read-out: AP4 A, umol/l blood",0.041 µmol/L
same,concentration at 1 h,"[2]; rabbit, blood, iv, 50 mg/kg, ex vivo, 60 min at 37° C., read-out: AP4 A, umol/l blood",0.037 µmol/L
same,aggregation of platelets induced by ADP after AP4 A infusion,"[3]; 50 mg per kg over 2 hours, ADP 2×10^-5 M (FIG. 4)",diminished response to ADP-induced aggregation; also recorded: markedly blunted
same,inhibition of ADP-induced platelet aggregation on administration to a mammal,"[3]; rabbit, in vivo",markedly inhibit ADP-induced platelet aggregation
same,effect on preformed aggregates caused by collagen,"[4]; added after aggregation, collagen 200 ug/ml (FIG. 2)",no effect
same,effect on collagen-induced aggregation,"[4]; added prior to induction, collagen 200 ug/ml (FIG. 3B)",inhibiting slightly
same,effect on collagen-induced platelet aggregation,[4]; same dose that almost completely inhibits ADP-induced aggregation,little or no effect
same,effect on collagen-induced aggregation after AP4 A infusion,[5],little effect
same,% CLOTS (incidence of thrombosis),[6]; [9],56%
same,Clot Absent (rabbits),[6]; [9],11
same,Clot Present (rabbits),[6]; [9],14
same,difference in dimension and weight of clots versus controls,[6]; AP4 A 50 mg/kg over 2 hours,no significant difference
same,minimal effective concentration,"[7]; Oryctolagus cuniculus, Platelet, ADP 2×10^-5 M (tenfold that of ADP), read-out: concentration at which the anti-aggregatory effect was detected",200 µM
same,effect of addition during ADP aggregation,"[7]; added during aggregation, ADP 2×10^-5 M",blunted the secondary wave response to ADP and caused the dispersion of aggregated platelets
same,inhibition of ADP-induced aggregation,[7]; same dose as tested with collagen,almost complete inhibition
same,degradation products,[8],degraded to AMP and ATP
